Experimental data as given in PMC11004178, “LDL receptor-related protein 5 selectively transports unesterified polyunsaturated fatty acids to intracellular compartments” (Nature Communications, 2024).

Molecular target: T1, mTORC1 (mTOR kinase complex) (Homo sapiens, UniProt P42345)
T1 construct: mTORC1 complex immunoprecipitated from HEK293T cells expressing HA-tagged Raptor; with Raptor (HA-tagged; mTORC1 complex)
Experiment: in vitro kinase assay, immunoprecipitated mTORC1, GST-4EBP1 substrate, […] EPA (single concentration)
Assay type: biochemical

CC/C=C\C/C=C\C/C=C\C/C=C\C/C=C\CCCC(=O)O [EPA, eicosapentaenoic acid]
in vitro kinase assay, immunoprecipitated mTORC1, GST-4EBP1 substrate, 100 μM EP: The addition of EPA, but not EPA-EE, caused significant inhibition of 4EBP1 phosphorylation by immunoprecipitated mTORC1
